# “And” between values parts separate entries of the source, which are not always exact repeats. Equal entries are not always repeated. Marks after values point to notes of the source that are not given here.
# Legend:
# [1] = test system: Meloidogyne incognita; test: M. incognita miniaturized greenhouse assay on cucumber seedlings (root galling); assay type: in vivo; details: cucumber roots, average of triplicate gall rating; for 8 ppm gall ratings: scale 0=0-5%, 1=6-20%, 2=21-50%, 3=51-100% root mass galled; for 1 ppm gall ratings: scale 0-3
# Procedure: The test compound is dissolved in an acetone solution and added to water. A sprouted cucumber seedling is placed into a vial with dry sand and the water-chemical solution is added immediately. Twenty four hours later Meloidogyne incognita eggs are added to the vials and 10 to 12 days later the roots are evaluated for nematode galling.
# Cucumber seeds are sprouted for 3 days in moist paper towels. Acceptable sprouts should be 3 to 4 cm long with several lateral roots just emerging. Stock solutions of chemistry are prepared in a mixture of acetone and Triton X100 (412 mg in 500 mL) to a final concentration of 5 mg/mL. The chemical stock solution is then added to 10 mL deionized water plus 0.015% Triton X100 and mixed thoroughly. This is enough to test each condition in triplicate. Ten mL dry sand is added to each vial. At this time the solubility of the chemistry is visually determined and recorded as either ppt (large precipitates) or cloudy (fine precipitates). Seedlings are planted by tilting the vial and laying the seedling in the correct orientation so that the cotyledons are just above the sand and then tilting back to cover the radicles with sand. 3.3 ml water/chemical mix is added to each vial and the vials placed in racks under fluorescent light banks. The vials are inoculated two days after planting by adding 500 vermiform M. incognita eggs to each vial in 50 uL of deionized or spring water. The vials are then kept under the fluorescent lamps at ambient room temperature and watered as needed with 1 mL deionized water, usually twice during duration of test. Harvest of the cucumber plants is done 10 to 12 days after inoculation by washing sand off the roots. A root gall rating and visual phytotoxicity rating is assigned using the following scales: Gall rating scale (Gall: % root mass galled): 0=0-5%; 1=6-20%; 2=21-50%; and 3=51-100%. The average of the triplicate gall rating is then calculated: green=0.00-0.33 (no galls); yellow=0.67-1.33 (mild galling); orange=1.67-2.33 (moderate galling); red=2.67-3.00 (severe galling). Visual phytotoxicity scale is also assigned (Vis. tox; visual reduction in root mass compared to the control): rs1=mild stunting; rs2=moderate stunting; rs3=severe stunting.
# [2] = test system: root knot nematode (RKN); test: RKN greenhouse soil assay on cucumber plants; assay type: in vivo, Meloidogyne incognita; details: 0 day treatment, rated 14 days after egg inoculation
# Excerpt: Cucumber seeds are planted in a sandy soil mixture in two inch square plastic pots. When the cotyledons are fully opened and just as the first leaf begins to emerge, usually 7 days after planting, chemistry for the 7-day treatment is applied. One week later the chemistry for the 0 day treatment is applied. Separate plants are used for each application. The plants are generally in the 1-2 leaf stage now. At least four hours after the chemistry application the pots are inoculated with root knot nematode (RKN) eggs. Plants are rated for galling 14 days after the egg inoculation.
# (§1) One milligram of chemistry per four pots is equal to one kilogram per hectare of chemical. A standard test uses four replications. For rates above 2 kg/ha, the desired amount of chemical is weighed into a 30 ml vial (example: 8 kg/ha rate=8 mg chemical in 30 ml vial). The chemical is dissolved in 2 ml of appropriate solvent, generally acetone. For rates below 2 kg/ha, 2 milligrams of chemistry is weighed into the vial and dissolved in 2 ml of the solvent. The appropriate amount of chemical concentrate is then pipetted into a separate 30 ml vial and solvent is added to bring the volume to 2 ml (example 0.5 kg/ha=0.5 ml of concentrate+1.5 ml solvent). Each dissolved concentrate is then brought to a total of 20 milliliters using 0.05% Triton X 100 surfactant solution.
# (§2) Pots to be treated are moist but not saturated. To each of four pots, five milliliters of the appropriate chemical solution is pipetted to the media surface making sure to avoid contact with the base of the plant. Immediately following chemical application, using a mist nozzle, the pot surface is wetted sufficiently to saturate the pot watering in the chemistry. The chemical application is done in the morning.
# Nematode eggs, either SCN or RKN, are added to distilled water to create a concentration of 1000 vermiform eggs […]. At least four hours after chemical treatment the eggs are applied to the treated pots plus non-treated check plants. A small hole about 1 cm deep is punched into the pot surface. […]
# [3] = test system: soybean cyst nematode (SCN); test: SCN greenhouse soil assay on soybean plants; assay type: in vivo, Heterodera glycines; details: 0 day treatment, harvested 28 days after egg inoculation, tests a and b
# Excerpt: Soybeans seeds are planted in 100% sand in two inch square plastic pots. Chemical treatment is done when the soybeans show the first trifoliate beginning to emerge about 10 to 12 days after planting. At least four hours after chemical application the nematode soybean cyst nematode (SCN) eggs are applied and 28 days after the egg inoculation the test is harvested.
# as §1, §2
# Nematode eggs, either SCN or RKN, are added to distilled water to create a concentration of 1000 vermiform eggs […]. At least four hours after chemical treatment the eggs are applied to the treated pots plus non-treated check plants. A small hole about 1 cm deep is punched into the pot surface. One milliliter of the nematode egg slurry is pipetted into the hole. Immediately afterwards the hole is gently covered. Watering of the test plants is then restricted to only water as needed to prevent wilt for a period of 24 hours. […]
Structure (SMILES),8 ppm gall ratings [1],1 ppm gall ratings [1],"percent control (galling reduction) relative to the control blank treatment, 0 day 1 kg/ha rate [2] [%]","percent control (cyst reduction) relative to the control blank treatment, 0 day 0.25 kg/ha rate [3]"
"Clc1ccc(-c2noc(Cc3ccco3)n2)cc1 [Name 1, 3-(4-chlorophenyl)-5-(furan-2-ylmethyl)-1,2,4-oxadiazole]",1.3^a,–,–,–
"Clc1ccc(-c2cnc(Sc3cccs3)o2)cc1 [Name 9, 5-(4-chlorophenyl)-2-(thiophen-2-ylthio)oxazole]",1.33^d,–,–,–
"Clc1ccc(-c2cnc(-n3cccc3)o2)cc1 [Name 10, 5-(4-chlorophenyl)-2-(1H-pyrrol-1-yl)oxazole]",–,1.33,100,–
"Clc1ccc(Oc2noc(-c3ccco3)n2)cc1 [Name 3, 3-(4-chlorophenoxy)-5-(furan-2-yl)-1,2,4-oxadiazole]",0^b,–,89,"79%^a, 79%^b"
"Clc1cccc(Oc2noc(-c3ccco3)n2)c1 [Name 4, 3-(3-chlorophenoxy)-5-(furan-2-yl)-1,2,4-oxadiazole]",0^b,–,83,67% and 78%
"Clc1cccc(-c2noc(Cc3ccco3)n2)c1 [Name 2, 3-(3-chlorophenyl)-5-(furan-2-ylmethyl)-1,2,4-oxadiazole]",1.3^a,–,–,–
"Clc1ccc(-c2coc(-c3ccco3)n2)cc1 [Name 8, 4-(4-chlorophenyl)-2-(furan-2-yl)oxazole]",0.67^d,–,–,–
"Clc1ccc(Cc2nsc(-c3ccco3)n2)cc1 [Name 5, 3-(4-chlorobenzyl)-5-(furan-2-yl)-1,2,4-thiadiazole]",0.67^b,–,–,–
"Clc1ccc(-c2coc(-c3ccco3)n2)c(Cl)c1 [Name 6, 4-(2,4-dichlorophenyl)-2-(furan-2-yl)oxazole]",0.33^c,–,–,–
"Cc1ccc(-c2coc(-c3ccco3)n2)c(C)c1 [Name 7, 4-(2,4-dimethylphenyl)-2-(furan-2-yl)oxazole]",1.33^c,–,–,–
"CNC(=O)O/N=C(\SC)C(=O)N(C)C [Oxamyl, reference compound]",–,1.33^e,–,67%^b

# — patent publication US9820486B2, “Compositions and methods for controlling nematodes” (Monsanto Technology LLC, priority 2009, dated 2017)
